Results taken from patent US8404721B2, “Compositions and methods for treating seizure disorders” (Allergan, Inc., priority 2009, dated 2013).

System: Male C57B/6 mice
Assay: Pentylenetetrazol (PTZ)-induced convulsions in mice
Format: in vivo
Conditions: for Latency to first convulsion: convulsion level 3 or higher; for Number of events Myoclonic: level 3+level 4 events; for Number of events Myoclonic / Number of events Clonic / Number of events Tonic-Clonic: scored 10 minutes; for Number of events Clonic: level 5 events; for Number of events Tonic-Clonic: level 6+level 7 events
Procedure: Male C57B/6 mice (20-25 g) were administered intraperitoneal Compound A (1 mg/kg), Compound B (1 or 10 mg/kg), Compound C (1 mg/kg), diazepam (0.5 mg/kg), gabapentin (50 mg/kg), or vehicle (ddH 2O) prior to treatment with pentylenetetrazol (PTZ, 50 mg/kg IP). Compounds A, B, C, and gabapentin were administered 60 minutes before, and diazepam or vehicle was administered 30 minutes before PTZ. Immediately following PTZ injection, mice were individually placed in an observation cage and the latency to onset of first convulsion (level 3 or higher; Table 2) was recorded, as well as the number of each type of convulsion (see Table 2 for scoring method modified from the scale used by Rizwan et al, Pol. J. Pharmacol., 55(6):965-71 (2003)).
Level I and 2 behaviors were not considered convulsions, but were scored to keep track of any possible sedative or abnormal effect following drug treatment.
Data are expressed as the number of myoclonic convulsions (level 3+level 4 events), number of clonic convulsions (level 5 events), and number of tonic-clonic events (level 6+level 7 events; Table 3-1), as well as the latency to first convulsion onset (in seconds). The sum of each convulsion type/mouse (myclonic, clonic, or clonic-tonic) was entered into GraphPad Prism and analyzed by One-Way ANOVA with post-hoc Dunnett's Multiple Comparisons Tests relative to vehicle+PTZ. Overall significance was established when P<0.0125 (corrected for number of groups). Post-hoc comparisons were considered significant when P<0.05.

[1] = 1 mg/kg intraperitoneal, 60 minutes before PTZ 50 mg/kg IP
[2] = 10 mg/kg intraperitoneal, 60 minutes before PTZ 50 mg/kg IP
[3] = 0.5 mg/kg intraperitoneal, 30 minutes before PTZ 50 mg/kg IP
[4] = 50 mg/kg intraperitoneal, 60 minutes before PTZ 50 mg/kg IP

SMILES	Latency to first convulsion [1]	Number of events Myoclonic [1]	Number of events Clonic [1]	Number of events Tonic-Clonic [1]	also measured
NC(C(=O)N1CCCC1)C(O)c1ccncc1 (racemic) [Compound A]	342.8 ± 76.7 s	1.40 ± 0.4	0.2 ± 0.1	0.5 ± 0.2	–
N[C@@H](C(=O)N1CCCC1)[C@@H](O)c1ccncc1 [Compound B]	208.8 ± 84.29 s	0.83 ± 0.31	0.83 ± 0.17	0.0 ± 0.0	Latency to first convulsion [2]: 308.9 ± 92.55 s; Number of events Myoclonic [2]: 0.17 ± 0.17; Number of events Clonic [2]: 0.50 ± 0.22; Number of events Tonic-Clonic [2]: 0.33 ± 0.21
N[C@@H](C(=O)N1CCCC1)[C@@H](O)c1ccc(F)cc1 [Compound C]	367.1 ± 78.30 s	2.00 ± 1.02	0.10 ± 0.10	0.0 ± 0.0	–
CN1C(=O)CN=C(c2ccccc2)c2cc(Cl)ccc21 [Diazepam, reference compound]	–	–	–	–	Latency to first convulsion [3]: 546.4 ± 53.60 s; Number of events Myoclonic [3]: 0.0 ± 0.0; Number of events Clonic [3]: 0.0 ± 0.0; Number of events Tonic-Clonic [3]: 0.60 ± 0.60
NCC1(CC(=O)O)CCCCC1 [Gabapentin, reference compound]	–	–	–	–	Latency to first convulsion [4]: 194.8 ± 30.41 s; Number of events Myoclonic [4]: 1.20 ± 0.55; Number of events Clonic [4]: 0.90 ± 0.18; Number of events Tonic-Clonic [4]: 0.20 ± 0.13
